Assay results published in the supplement of paper PMC11208160.

Assay: recombinant barcode read abundance after kanamycin selection (control-corrected) (log10(CPM+1)); higher = more efficient recombination; sequences stand for … in AGTGCAGAGAAAATCGGCCAGTTTTCTCTGCCTGCAGTCCGCATGCCGT…AGATTTATGCAGCGGACTGCCTTTCTCCCAAAGTGATAAACCGGACAGTATCATGGACCGGTTTTCCCGGTAATCCGTATTTGCAAGGTTGGTTTCACT; site = the 11-nt target
Procedure, shortened: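 Two replicates per condition were plated: chloramphenicol/ampicillin LB agar for the control, and chloramphenicol/ampicillin/kanamycin with 0.1 mM IPTG for selection. The pooled E. coli screen behind them paired targets with IS621 bridge RNA target-binding loops. Recombination efficiency is expressed from averaged, control-corrected barcode counts per million at recombinant junctions, as log10(CPM+1).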
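Further: IS621 recombinase and bridge RNA in Escherichia coli cells.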

| Sequence | recombinant barcode read abundance (log10) |
| --- | --- |
| GTGTACCCTTGGGTTCTAACCTGTTGCGA (site GTGTACCCTTC) | 2.35 |
| GTGTATACTTGGGTTCTAACCTGTTGCCT (site GTATATACTAG) | 1.12 |
| GTGTATACTTGGGTTCTAACCTGTTGCCT (site GTCTATACTAG) | 0.173 |
| GTGTATACTTGGGTTCTAACCTGTTGCCT (site GTGTATACTAG) | 1.24 |
| GTGTATACTTGGGTTCTAACCTGTTGCCT (site GTTTATACTAG) | 0.075 |
| GTGTCGCCTTGGGTTCTAACCTGTTGCCT (site GTGTCGCCTAC) | 0.224 |
| GTGTCGCCTTGGGTTCTAACCTGTTGCCT (site GTGTCGCCTAG) | 0.845 |
| GTGTCGCCTTGGGTTCTAACCTGTTGCGT (site GTGTCGCCTAC) | 1.72 |
| GTGTCGCCTTGGGTTCTAACCTGTTGCGT (site GTGTCGCCTAG) | 0.0604 |
| GTGTCTCCTTGGGTTCTAACCTGTTGCAT (site GTGTATCCTAT) | 0.162 |
| GTGTCTCCTTGGGTTCTAACCTGTTGCAT (site GTGTCTCCTAT) | 1.54 |
| GTGTCTCCTTGGGTTCTAACCTGTTGCAT (site GTGTGTCCTAT) | 0.457 |
| GTGTCTCCTTGGGTTCTAACCTGTTGCAT (site GTGTTTCCTAT) | 0.243 |
| GTGTGTTCTTGGGTTCTAACCTGTTGCCT (site GTGTGTACTAG) | 1.15 |
| GTGTGTTCTTGGGTTCTAACCTGTTGCCT (site GTGTGTCCTAG) | 0.0466 |
| GTGTGTTCTTGGGTTCTAACCTGTTGCCT (site GTGTGTGCTAG) | 0 |
| GTGTGTTCTTGGGTTCTAACCTGTTGCCT (site GTGTGTTCTAG) | 0.726 |
| GTGTTGCCTTGGGTTCTAACCTGTTGCCT (site GAGTTGCCTAG) | 0.267 |
| GTGTTGCCTTGGGTTCTAACCTGTTGCCT (site GCGTTGCCTAG) | 0.392 |
| GTGTTGCCTTGGGTTCTAACCTGTTGCCT (site GGGTTGCCTAG) | 0.0383 |
| GTGTTGCCTTGGGTTCTAACCTGTTGCCT (site GTGTTGCCTAG) | 0.73 |
| GTTACCTCTTGGGTTCTAACCTGTTGCCT (site CAAGGTCCTCC) | 0.0556 |

| Sequence | recombinant barcode read abundance (log10) |
| --- | --- |
| GTTACCTCTTGGGTTCTAACCTGTTGCCT (site GTTACCTCTAG) | 0.859 |
| GTTAGCCCTTGGGTTCTAACCTGTTGCAT (site GTTAGCCCTAT) | 0.928 |
| GTTAGCCCTTGGGTTCTAACCTGTTGCAT (site TCACAGACTCG) | 0.0525 |
| GTTAGCCCTTGGGTTCTAACCTGTTGCGG (site GTCAGCCCTCC) | 0.167 |
| GTTAGCCCTTGGGTTCTAACCTGTTGCGG (site GTTAGCCCTCC) | 1.79 |
| GTTCCTGCTTGGGTTCTAACCTGTTGCCT (site GTTCCTCCTAG) | 0.265 |
| GTTCCTGCTTGGGTTCTAACCTGTTGCCT (site GTTCCTGCTAG) | 0.86 |
| GTTCGAGCTTGGGTTCTAACCTGTTGCCT (site GTTAGAGCTAG) | 0.276 |
| GTTCGAGCTTGGGTTCTAACCTGTTGCCT (site GTTCGAGCTAG) | 1.61 |
| GTTCGAGCTTGGGTTCTAACCTGTTGCCT (site GTTGGAGCTAG) | 0.114 |
| GTTCGAGCTTGGGTTCTAACCTGTTGCCT (site GTTTGAGCTAG) | 0.153 |
| GTTCGAGCTTGGGTTCTAACCTGTTGCGG (site ATTCGAGCTCC) | 1.74 |
| GTTCGAGCTTGGGTTCTAACCTGTTGCGG (site GTTCGAGCTCC) | 2.49 |
| GTTGACCCTTGGGTTCTAACCTGTTGCCT (site GTAGACCCTCG) | 0.0195 |
| GTTGACCCTTGGGTTCTAACCTGTTGCCT (site GTTGACCCTAG) | 2.2 |
| GTTGGCCCTTGGGTTCTAACCTGTTGCCT (site GATGGCCCTAG) | 0.579 |
| GTTGGCCCTTGGGTTCTAACCTGTTGCCT (site GCTGGCCCTAG) | 0.306 |
| GTTGGCCCTTGGGTTCTAACCTGTTGCCT (site GGTGGCCCTAG) | 0.152 |
| GTTGGCCCTTGGGTTCTAACCTGTTGCCT (site GTTGGCCCTAG) | 1.94 |
| GTTGGTCCTTGGGTTCTAACCTGTTGCGT (site GTGAGTCCTAC) | 0.136 |
| GTTGGTCCTTGGGTTCTAACCTGTTGCGT (site GTTGGTCCTAC) | 2.76 |
| GTTTAAACTTGGGTTCTAACCTGTTGCCT (site GTTTAAACTAG) | 0.809 |

| Sequence | recombinant barcode read abundance (log10) |
| --- | --- |
| GTTTAAACTTGGGTTCTAACCTGTTGCCT (site GTTTACGCTAG) | 0.0493 |
| GTTTACGCTTGGGTTCTAACCTGTTGCCT (site GTTTAAACTAG) | 0.0797 |
| GTTTACGCTTGGGTTCTAACCTGTTGCCT (site GTTTACGCTAG) | 1.96 |
| GTTTCTACTTGGGTTCTAACCTGTTGCTA (site ATTTCTACTTC) | 0.128 |
| GTTTCTACTTGGGTTCTAACCTGTTGCTA (site GTTTCTACTTA) | 0.0482 |
| GTTTCTTCTTGGGTTCTAACCTGTTGCCT (site GATTCTTCTAG) | 0.304 |
| GTTTCTTCTTGGGTTCTAACCTGTTGCCT (site GCTTCTTCTAG) | 0.0824 |
| GTTTCTTCTTGGGTTCTAACCTGTTGCCT (site GGTTCTTCTAG) | 0.171 |
| GTTTCTTCTTGGGTTCTAACCTGTTGCCT (site GTTTCTTCTAG) | 0.0189 |
| GTTTGATCTTGGGTTCTAACCTGTTGCCT (site GTTTGATCTAG) | 0.172 |
| GTTTGATCTTGGGTTCTAACCTGTTGCCT (site GTTTGCTCTAG) | 0.029 |
| GTTTGATCTTGGGTTCTAACCTGTTGCCT (site GTTTGGTCTAG) | 0.212 |
| GTTTGATCTTGGGTTCTAACCTGTTGCCT (site GTTTGTTCTAG) | 0 |
| GTTTGCCCTTGGGTTCTAACCTGTTGCTT (site GTTTGACCTAA) | 0.0376 |
| GTTTGCCCTTGGGTTCTAACCTGTTGCTT (site GTTTGCCCTAA) | 0.0681 |
| GTTTGCCCTTGGGTTCTAACCTGTTGCTT (site GTTTGGCCTAA) | 0.0442 |
| GTTTGCCCTTGGGTTCTAACCTGTTGCTT (site GTTTGTCCTAA) | 0.164 |
| GTTTGCTCTTGGGTTCTAACCTGTTGCCT (site GTTTGATCTAG) | 0.0882 |
| GTTTGCTCTTGGGTTCTAACCTGTTGCCT (site GTTTGCTCTAG) | 0.635 |
| GTTTGCTCTTGGGTTCTAACCTGTTGCCT (site GTTTGGTCTAG) | 0.416 |
| GTTTGCTCTTGGGTTCTAACCTGTTGCCT (site GTTTGTTCTAG) | 0.115 |
| GTTTGTCCTTGGGTTCTAACCTGTTGCTT (site GTTTGACCTAA) | 0.178 |

| Sequence | recombinant barcode read abundance (log10) |
| --- | --- |
| GTTTGTCCTTGGGTTCTAACCTGTTGCTT (site GTTTGCCCTAA) | 0.0342 |
| GTTTGTCCTTGGGTTCTAACCTGTTGCTT (site GTTTGGCCTAA) | 0.644 |
| GTTTGTCCTTGGGTTCTAACCTGTTGCTT (site GTTTGTCCTAA) | 0.048 |
| TAAAGGCCTTGGGTTCTAACCTGTTGCTA (site CAAAGGTCTTA) | 0.218 |
| TAAAGGCCTTGGGTTCTAACCTGTTGCTA (site TAAAGGCCTTA) | 0.159 |
| TAAAGGGCTTGGGTTCTAACCTGTTGCCT (site TAAAGGGCTAG) | 0.4 |
| TAAAGGGCTTGGGTTCTAACCTGTTGCCT (site TAACGGGCTCG) | 0.0341 |
| TAAATAGCTTGGGTTCTAACCTGTTGCCT (site TAAATAGCTAG) | 0.881 |
| TAAATAGCTTGGGTTCTAACCTGTTGCCT (site TAATTAGCTAG) | 0.243 |
| TAAATCCCTTGGGTTCTAACCTGTTGCGA (site ACGGAATCTCG) | 0.0648 |
| TAAATCCCTTGGGTTCTAACCTGTTGCGA (site TAAATCCCTTC) | 1.22 |
| TAACATACTTGGGTTCTAACCTGTTGCAT (site TAACATACTAT) | 1.22 |
| TAACATACTTGGGTTCTAACCTGTTGCAT (site TAACCTACTAT) | 0.139 |
| TAACATACTTGGGTTCTAACCTGTTGCAT (site TAACGTACTAT) | 0.233 |
| TAACATACTTGGGTTCTAACCTGTTGCAT (site TAACTTACTAT) | 0.0391 |
| TAACCATCTTGGGTTCTAACCTGTTGCCT (site TAACCATCTAG) | 0.266 |
| TAACCATCTTGGGTTCTAACCTGTTGCCT (site TACCCATCTAG) | 0.0574 |
| TAACCATCTTGGGTTCTAACCTGTTGCCT (site TAGCCATCTAG) | 0.0156 |
| TAACCATCTTGGGTTCTAACCTGTTGCCT (site TATCCATCTAG) | 0.0811 |
| TAACCTGCTTGGGTTCTAACCTGTTGCCT (site TAACCTACTAG) | 0.532 |
